Ten compounds from ChEMBL document CHEMBL1201862, “PubChem BioAssay data set” (2004) can be followed below.

The source made the active and inactive calls. Bounds are passed on as bounds.

By AC50 is commonly meant the concentration at which the activity in the assay is half-maximal. In general, IC50 refers to the concentration at which inhibition is half-maximal. One may read the CC50 as the concentration that lowers cell viability or growth by half.

Experiment [1] addresses Lethal factor (Bacillus anthracis, UniProt P15917). The experiment in a line: High-throughput multiplex microsphere dose response for inhibitors of toxin protease, specifically Lethal Factor protease, compounds from Powder Set 01. Type of experiment: functional, Bacillus anthracis str. A2012. To be noted: read-out: EC50_MICROM.
Experiment [2] concerns the target T1, Botulinum neurotoxin type A (Clostridium botulinum (strain Hall / ATCC 3502 / NCTC 13319 / Type A), UniProt P0DPI1). The experiment in a line: Confirmatory FRET assay using full length substrates for Botulinum neurotoxin light chain A protease, with Powder Set01. It is filed as functional.
Experiment [3] deals with Botulinum neurotoxin type F (Clostridium botulinum, UniProt P30996). The experiment in a line: High-throughput multiplex microsphere dose response for inhibitors of toxin protease, specifically Botulinum neurotoxin light chain F protease, compounds from Powder Set 01. It is filed as functional, Clostridium botulinum Bf. To be noted: read-out: EC50_MICROM.
Chain of Botulinum neurotoxin type F (P30996 1-436 limits assumed): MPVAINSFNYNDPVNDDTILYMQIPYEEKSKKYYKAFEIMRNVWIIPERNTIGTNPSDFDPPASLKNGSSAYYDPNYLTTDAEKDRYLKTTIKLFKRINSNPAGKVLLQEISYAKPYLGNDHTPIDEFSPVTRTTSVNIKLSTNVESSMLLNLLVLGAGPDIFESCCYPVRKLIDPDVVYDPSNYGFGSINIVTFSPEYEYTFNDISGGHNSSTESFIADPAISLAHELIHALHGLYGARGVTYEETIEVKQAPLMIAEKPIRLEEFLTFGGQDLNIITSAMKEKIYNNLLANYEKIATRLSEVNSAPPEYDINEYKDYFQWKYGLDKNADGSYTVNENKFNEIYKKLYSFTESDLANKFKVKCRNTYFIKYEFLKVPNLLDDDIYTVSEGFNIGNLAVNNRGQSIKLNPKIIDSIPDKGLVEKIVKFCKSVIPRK
Experiment [4] has as its target T1, Botulinum neurotoxin type A. The experiment in a line: High-throughput multiplex microsphere dose response for inhibitors of toxin protease, specifically Botulinum neurotoxin light chain A protease, compounds from Powder Set 01. It is filed as functional, Clostridium botulinum A str. ATCC 3502. To be noted: read-out: EC50_MICROM.
The target of experiment [5] is Paired box protein Pax-8 (Homo sapiens, UniProt Q06710). Description: PAX8 transcriptional activity inhibition in RMG-I – RMG-I cells, luciferase, cherry-pick, dose response (AID 687027).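 Also: luciferase reporter driven by Pax8 target thyroperoxidase promoter measured by SteadyGlo luminescence.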 Type of experiment: functional, cell-based.
Chain of Paired box protein Pax-8 (Q06710 whole entry): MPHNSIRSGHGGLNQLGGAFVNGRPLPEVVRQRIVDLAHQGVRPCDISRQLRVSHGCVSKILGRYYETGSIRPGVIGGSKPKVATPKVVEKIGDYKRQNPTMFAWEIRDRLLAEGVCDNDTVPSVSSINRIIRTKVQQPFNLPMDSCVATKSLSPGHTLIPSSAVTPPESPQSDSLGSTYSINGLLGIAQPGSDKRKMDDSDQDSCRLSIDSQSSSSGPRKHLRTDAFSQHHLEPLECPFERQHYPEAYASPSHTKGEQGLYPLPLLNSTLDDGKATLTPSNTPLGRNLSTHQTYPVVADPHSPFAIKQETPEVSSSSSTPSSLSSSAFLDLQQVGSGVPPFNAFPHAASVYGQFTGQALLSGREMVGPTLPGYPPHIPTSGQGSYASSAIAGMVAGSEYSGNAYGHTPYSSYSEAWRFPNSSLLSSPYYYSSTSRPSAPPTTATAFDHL
The nature of experiment [6]: OVCAR8 cell viability loss – plate reader, dry powder samples, PAX8 project, dose response (AID 743197). Type of experiment: functional, cell-based. To be noted: OVCAR-8.
Experiment [7] in a line: IGROV1 cell killing – plate reader, dry powder samples, PAX8 inhibitor project, dose response (AID 743043). It is filed as functional, cell-based. To be noted: IGROV-1.
The nature of experiment [8]: toxicity toward immortalized ovarian surface epithelium – cell-based, plate reader, dry powder samples, cytotoxicity control for PAX8 inhibitor project, dose response (AID 743045). Type of experiment: functional.
The nature of experiment [9]: CMV-driven luciferase expression suppression in HEK293 – cell-based, luminescence, dry powder, counter-screen for Pax8 inhibitor project, dose response (AID 743020). Type of experiment: functional. (In general: Counterscreens check selectivity or assay interference.)
Experiment [10] is described as follows: OVCAR-3 cell viability loss – plate reader, dry powder samples, PAX8 inhibitor project, dose response (AID 743044). Type of experiment: functional, cell-based.
For experiment [11], the system named is Cryptococcus neoformans. Description: PubChem AID 686997. Type of experiment: functional, organism-based.
For experiment [12], the system named is Cryptococcus neoformans. The experiment in a line: Cryptococcus growth inhibition by alamar blue – cell lysis, cherry-picks, replicate tests, mechanism study for C. neoformans antifungal project, dose response (AID 686999). It is filed as functional, organism-based.
The nature of experiment [13]: TNFa-induced NF-kB reporter signal decrease – HEK293 LMP1 reporter cells, dry powder, set 2, selectivity assay for EBV LMP1 NF-kB inhibitor project, dose response (AID 624369). It is filed as functional.
Experiment [14] in a line: inhibitors of EBV LMP1 NF-kappaB signaling – cell-based, luciferase reporter, luminescence, dry powder, set 2, dose response (AID 624376). Type of experiment: functional. On the technique in general: In a reporter assay the amount or activity of a reporter protein is the signal.
For experiment [15], the target named is Protein disulfide-isomerase (Homo sapiens, UniProt P07237). The experiment in a line: inhibition of PDI-mediated insulin reduction – biochemical, turbidity, dry powder samples, set 2, confirmation (AID 652146).
Chain of Protein disulfide-isomerase (P07237 whole entry): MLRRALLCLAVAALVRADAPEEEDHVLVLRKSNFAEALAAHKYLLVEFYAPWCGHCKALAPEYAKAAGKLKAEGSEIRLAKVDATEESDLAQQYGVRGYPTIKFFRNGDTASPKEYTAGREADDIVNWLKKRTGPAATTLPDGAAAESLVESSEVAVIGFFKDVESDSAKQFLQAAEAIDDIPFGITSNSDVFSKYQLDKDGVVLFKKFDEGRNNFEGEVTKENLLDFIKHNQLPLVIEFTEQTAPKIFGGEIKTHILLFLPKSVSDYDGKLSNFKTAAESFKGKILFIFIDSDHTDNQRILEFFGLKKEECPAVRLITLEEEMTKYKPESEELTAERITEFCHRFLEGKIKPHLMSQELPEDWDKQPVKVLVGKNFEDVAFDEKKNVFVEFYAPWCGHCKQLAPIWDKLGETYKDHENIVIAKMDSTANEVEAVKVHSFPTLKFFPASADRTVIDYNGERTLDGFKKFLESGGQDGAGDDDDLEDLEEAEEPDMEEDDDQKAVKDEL
Experiment [16] in a line: blockade of melanocortin 4 receptor signaling – cell-based, plate reader, cherry pick, counter-screen for LGR2 antagonist project, dose response (AID 743444).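 Also: transfected HEK 293 cells stimulated with alpha-MSH peptide; potency of inhibitors of the alpha-MSH evoked signal.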 Type of experiment: functional.
Experiment [17] in a line: A549 cell cytotoxicity, dose response, cytotoxicity control, plate reader, cherry-pick, antagonist series (AID 743412). Type of experiment: functional, cell-based.
A short description of experiment [18]: toxicity toward HepG2 liver cells – cell-based, plate reader, cherry-pick, antagonist series, cytotoxicity control, dose response (AID 743416). Type of experiment: functional.
The nature of experiment [19]: blockers of FN fibrillogenesis by fibroblasts – AH1F cells, Alexa488-FN fluorescence, cherry-picks, dose response (AID 1035475). It is filed as functional, cell-based.
A short description of experiment [20]: blockers of bursicon-stimulated LGR2 cAMP reporter – cell-based, HEK293, CRE-luciferase reporter, cherry pick, set 2, dose response (AID 743343).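 Also: transfected cells were stimulated with diluted bursicon conditioned medium after compound addition.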 It is filed as functional.
Experiment [21] in a line: viability loss in HepG2 hepatoma cells – cell-based, cherry-picks, set 5, cytotoxicity control, dose response (AID 1053118). It is filed as functional.
Experiment [22] can be described thus: viability loss in HEK293 cells – cell-based, plate reader, cherry-picked samples, cytotoxicity control, dose response (AID 743446). Type of experiment: functional.
The nature of experiment [23]: viability loss in A549 lung cancer cells – cell-based, cherry-picks, […], cytotoxicity control, dose response (AID 1053119). Type of experiment: functional.
A short description of experiment [24]: viability loss in HEK293 kidney cells – cell-based, cherry-picks, set 5, cytotoxicity control, dose response (AID 1053117). It is filed as functional.
Experiment [25] has as its target Protein Wnt-3a (Mus musculus, UniProt P27467). The experiment in a line: SAR analysis of small molecule antagonists of Gli-SUFU in a Wnt3a luminescent reporter assay. It is filed as functional.
The nature of experiment [26]: T. cruzi growth inhibition in host cells, dose response, cell-based, plate reader, dry powder, set 2 (AID 652275). Type of experiment: functional.
The nature of experiment [27]: viability of BHK-21 cells – cell-based, secondary screen, cytotoxicity control for flavivirus guanylyltransferase probe project (AID 624078). It is filed as functional.
Experiment [28] can be described thus: kidney cell line viability loss – HEK293T, luminescence plate reader, powder samples, set 4, cytotoxicity control, dose response (AID 651863). It is filed as functional, cell-based. To be noted: HEK293.

T1 sequence (P0DPI1 2-448 limits assumed): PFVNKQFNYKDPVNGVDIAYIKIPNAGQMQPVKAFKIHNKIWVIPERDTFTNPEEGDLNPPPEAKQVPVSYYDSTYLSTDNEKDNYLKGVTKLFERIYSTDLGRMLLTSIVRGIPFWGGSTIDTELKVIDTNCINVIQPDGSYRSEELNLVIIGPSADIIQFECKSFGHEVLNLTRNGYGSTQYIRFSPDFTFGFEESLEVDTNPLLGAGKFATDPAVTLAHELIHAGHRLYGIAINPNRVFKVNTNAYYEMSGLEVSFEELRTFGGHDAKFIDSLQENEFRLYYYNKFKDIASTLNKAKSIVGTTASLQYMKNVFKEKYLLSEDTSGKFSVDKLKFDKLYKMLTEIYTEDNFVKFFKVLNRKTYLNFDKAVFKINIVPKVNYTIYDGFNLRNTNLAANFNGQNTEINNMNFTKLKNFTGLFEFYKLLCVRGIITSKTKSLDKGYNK
Chain of Protein Wnt-3a (P27467 whole entry): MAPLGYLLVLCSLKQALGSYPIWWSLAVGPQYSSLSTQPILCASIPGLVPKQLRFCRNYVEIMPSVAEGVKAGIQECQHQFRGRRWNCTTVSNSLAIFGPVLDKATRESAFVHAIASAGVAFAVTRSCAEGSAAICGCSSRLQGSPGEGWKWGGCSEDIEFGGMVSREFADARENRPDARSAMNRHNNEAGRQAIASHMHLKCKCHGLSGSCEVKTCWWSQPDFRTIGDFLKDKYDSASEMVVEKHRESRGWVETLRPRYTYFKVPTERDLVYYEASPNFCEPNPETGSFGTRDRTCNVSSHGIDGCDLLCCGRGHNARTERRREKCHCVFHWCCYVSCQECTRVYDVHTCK
Chain of Lethal factor (P15917 whole entry): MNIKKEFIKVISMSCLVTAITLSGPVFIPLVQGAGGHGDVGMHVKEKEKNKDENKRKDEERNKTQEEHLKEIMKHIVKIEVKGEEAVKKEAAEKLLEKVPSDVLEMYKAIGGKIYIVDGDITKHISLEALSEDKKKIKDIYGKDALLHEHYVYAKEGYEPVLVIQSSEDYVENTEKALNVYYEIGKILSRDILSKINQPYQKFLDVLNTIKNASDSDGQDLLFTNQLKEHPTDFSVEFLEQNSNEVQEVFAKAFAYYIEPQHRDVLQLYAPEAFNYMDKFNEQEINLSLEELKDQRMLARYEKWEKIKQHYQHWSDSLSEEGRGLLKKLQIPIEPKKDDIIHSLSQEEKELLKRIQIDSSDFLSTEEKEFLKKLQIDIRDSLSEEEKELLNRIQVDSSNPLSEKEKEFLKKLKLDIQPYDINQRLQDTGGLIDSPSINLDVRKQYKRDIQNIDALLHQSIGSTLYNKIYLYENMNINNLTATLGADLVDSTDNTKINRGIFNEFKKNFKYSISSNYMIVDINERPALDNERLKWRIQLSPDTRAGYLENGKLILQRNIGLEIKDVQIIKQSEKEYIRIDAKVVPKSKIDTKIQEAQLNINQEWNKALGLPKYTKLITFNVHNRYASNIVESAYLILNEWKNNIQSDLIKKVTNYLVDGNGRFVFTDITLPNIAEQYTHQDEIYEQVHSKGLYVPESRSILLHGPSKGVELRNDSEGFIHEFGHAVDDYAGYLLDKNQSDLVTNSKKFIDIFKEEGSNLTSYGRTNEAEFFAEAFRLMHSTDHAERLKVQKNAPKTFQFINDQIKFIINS

For the compound `O=C(Nc1ccc2nc(-c3cccs3)c(-c3cccs3)nc2c1)N1CCCCC1`, the EC50 was 6.7 µM (active) in experiment [1], 6.9 µM (active) in experiment [2], 4.6 µM (active) in experiment [3] and 6.1 µM (active) in experiment [4].
In the case of `C[C@@H]1CN([C@H](C)CO)C(=O)c2cc(NS(=O)(=O)c3ccccc3)ccc2O[C@@H](C)CCCCO[C@H]1CN(C)Cc1ccc(C(F)(F)F)cc1`, the AC50 in [5] was 5.82 µM (active); in experiment [6], 17.6 µM (active); in experiment [7], 35.8 µM (active); in experiment [8] it was 55.1 µM (active); in experiment [9], 29.8 µM (active); in experiment [10] it was 15.7 µM (active).
For `COC(=O)C1=C(C)N(Cc2ccc(Cl)cc2)C(=S)NC1c1ccc(Br)cc1` (stereo not drawn), the AC50 in experiment [11] is 27.3 µM (active); in [12] it was 29.1 µM (active).
`O=C(C[C@@H]1C[C@H]2c3cc(NS(=O)(=O)c4ccc(F)cc4)ccc3O[C@H]2[C@H](CO)O1)NCc1ccc(Oc2ccccc2)cc1`: the AbsAC35 in experiment [13] worked out at 42.88 µM; in experiment [14], 65.62 µM.
On to `CCNC(=O)C1(CCOc2ccccc2)CCN(Cc2ccc(O)c(Cl)c2)CC1`, for which, in experiment [15], the AC50 is > 30 µM (inactive).
`C[C@@H]1CN([C@H](C)CO)C(=O)c2cccc(NC(=O)Nc3ccc(C(F)(F)F)cc3)c2O[C@@H]1CN(C)C(=O)Nc1cccc2ccccc12`: the AC50 in experiment [16] is 14.3 µM (active); in experiment [17], 16.4 µM (active); in [18], 19.6 µM (active); in experiment [19], 7.47 µM (active); in experiment [20], 19.4 µM (active); in experiment [21], 32.5 µM (active). Further, the AC50 was 14.8 µM (active) in experiment [22], 24.3 µM (active) in experiment [23] and 29.2 µM (active) in experiment [24].
Consider `N#Cc1cccc(C(=O)Nc2cc(N3CCCCC3)ncn2)c1`, for which the IC50 in experiment [25] is > 21.8 µM (inactive).
With `CC(C)N1C[C@H](C)[C@@H](CN(C)Cc2ccc(F)cc2)Oc2c(C(=O)Nc3ccncc3)cccc2C1=O`, in [26], the AC50 was 0.313 µM (active).
Turning to `Cc1cc(F)ccc1S(=O)(=O)Nc1cc(SCC(=O)O)c(O)c2ccccc12`, the CC50 in [27] is 10.7 µM (active).
For `CC(=O)Nc1cc(NS(=O)(=O)c2c(C)cc(C)cc2C)c2ccccc2c1O`, in experiment [28], the AC50 is 32.3 µM (active).
